The source made the active and inactive calls. No cut-off for these calls is given here.
How the values were obtained:
Neutrophil [1] = test: Inhibition of fMLF/CB-induced human Neutrophil activation assessed as reduction in superoxide anion generation preincubated with compound for 2 mins prior to CB induction for 3 mins followed by fMLF addition by spectrophotometric analysis; assay type: functional, cell-based
Neutrophil [2] = test: Inhibition of fMLF/CB-induced human Neutrophil activation assessed as reduction in superoxide anion generation at 10 uM preincubated with compound for 2 mins prior to CB induction for 3 mins followed by fMLF addition by spectrophotometric analysis relative to control; assay type: functional; details: 5 min
Neutrophil [3] = test: Inhibition of fMLF/CB-induced human Neutrophil activation assessed as reduction in elastase release using MeO-Suc-Ala-Ala-Pro-Val-pnitroanilide as substrate incubated for 5 mins; assay type: functional, cell-based
Neutrophil [4] = test: Inhibition of fMLF/CB-induced human Neutrophil activation assessed as reduction in elastase release at 10 uM using MeO-Suc-Ala-Ala-Pro-Val-pnitroanilide as substrate incubated for 5 mins relative to control; assay type: functional
[5] = molecular target: Phosphodiesterase 4 (Homo sapiens) (UniProt P27815+Q08499+Q07343+Q08493); test: Inhibition of PDE4 (unknown origin) at 50 uM incubated for 1 hr by scintillation proximity assay relative to control; assay type: protein assay
Neutrophil [6] = test: Inhibition of fMLF/CB-induced human Neutrophil activation assessed as reduction in superoxide anion generation at 1 to 1000 nM preincubated with compound for 2 mins prior to CB induction for 3 mins followed by fMLF addition in presence of KT5720 by spectrophotometric analysis; assay type: functional, cell-based; details: dose 1-1000 nM, time 5.0 min
[7] = molecular target: 3',5'-cyclic-AMP phosphodiesterase 4B (Homo sapiens) (UniProt Q07343); test: Inhibition of human recombinant PDE4B1 at 10 uM using […] as substrate preincubated with compound for 15 mins followed by substrate addition and measured after 30 mins by spectrofluorimetric analysis relative to control; details: time 45.0 min
Sequence of 3',5'-cyclic-AMP phosphodiesterase 4B (Homo sapiens) (Q07343 whole entry): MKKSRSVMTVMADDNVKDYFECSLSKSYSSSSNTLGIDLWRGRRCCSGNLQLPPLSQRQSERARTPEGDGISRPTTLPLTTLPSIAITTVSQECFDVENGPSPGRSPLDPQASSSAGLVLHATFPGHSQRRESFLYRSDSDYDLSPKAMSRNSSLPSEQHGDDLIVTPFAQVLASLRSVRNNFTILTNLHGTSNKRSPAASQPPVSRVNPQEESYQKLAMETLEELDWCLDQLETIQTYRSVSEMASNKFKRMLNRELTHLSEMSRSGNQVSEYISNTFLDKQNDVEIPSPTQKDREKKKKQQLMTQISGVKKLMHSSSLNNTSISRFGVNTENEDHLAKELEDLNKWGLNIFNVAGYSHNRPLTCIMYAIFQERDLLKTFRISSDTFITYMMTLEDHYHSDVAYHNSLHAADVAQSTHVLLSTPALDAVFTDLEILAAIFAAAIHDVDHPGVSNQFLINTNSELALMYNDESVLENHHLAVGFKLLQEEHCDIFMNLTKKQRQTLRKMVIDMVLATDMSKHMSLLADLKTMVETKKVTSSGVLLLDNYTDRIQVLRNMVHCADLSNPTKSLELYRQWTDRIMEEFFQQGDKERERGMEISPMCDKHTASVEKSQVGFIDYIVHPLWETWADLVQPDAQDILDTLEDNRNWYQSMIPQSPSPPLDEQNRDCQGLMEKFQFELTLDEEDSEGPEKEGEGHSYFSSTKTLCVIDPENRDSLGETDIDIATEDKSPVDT

[8] = molecular target: 3',5'-cyclic-AMP phosphodiesterase 4D (Homo sapiens) (UniProt Q08499); test: Inhibition of human recombinant PDE4D2 at 10 uM using […] as substrate preincubated with compound for 15 mins followed by substrate addition and measured after 30 mins by spectrofluorimetric analysis relative to control; details: time 45.0 min
Sequence of 3',5'-cyclic-AMP phosphodiesterase 4D (Homo sapiens) (Q08499 whole entry): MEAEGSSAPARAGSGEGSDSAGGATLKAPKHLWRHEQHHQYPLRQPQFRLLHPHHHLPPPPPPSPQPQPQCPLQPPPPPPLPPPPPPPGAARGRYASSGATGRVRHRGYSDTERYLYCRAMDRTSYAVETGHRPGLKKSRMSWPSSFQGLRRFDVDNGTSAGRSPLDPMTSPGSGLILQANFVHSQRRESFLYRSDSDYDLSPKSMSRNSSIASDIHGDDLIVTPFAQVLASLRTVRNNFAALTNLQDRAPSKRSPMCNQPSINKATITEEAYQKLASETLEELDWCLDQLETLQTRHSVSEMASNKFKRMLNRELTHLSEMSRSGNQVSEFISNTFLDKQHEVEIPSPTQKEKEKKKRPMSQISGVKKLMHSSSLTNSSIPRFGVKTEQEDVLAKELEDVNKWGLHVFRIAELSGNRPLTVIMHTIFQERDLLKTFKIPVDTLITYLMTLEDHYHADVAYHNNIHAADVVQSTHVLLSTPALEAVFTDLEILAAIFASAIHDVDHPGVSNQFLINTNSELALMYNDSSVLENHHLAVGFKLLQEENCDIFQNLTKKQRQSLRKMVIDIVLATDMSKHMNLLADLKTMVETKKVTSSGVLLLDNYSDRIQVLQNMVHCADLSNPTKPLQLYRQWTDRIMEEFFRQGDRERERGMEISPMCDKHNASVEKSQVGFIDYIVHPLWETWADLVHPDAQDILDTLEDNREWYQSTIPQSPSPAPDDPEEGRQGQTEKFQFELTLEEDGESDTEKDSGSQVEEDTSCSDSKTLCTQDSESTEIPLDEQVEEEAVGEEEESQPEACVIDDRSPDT

[9] = AUC (0 to infinity) in C57BL/6 mouse at 5 mg/kg, iv measured upto 360 mins by HPLC analysis; assay type: ADME, organism-based; details: in vivo
[10] = Half life in C57BL/6 mouse at 5 mg/kg, iv measured upto 360 mins by HPLC analysis; assay type: ADME, organism-based; details: in vivo
[11] = Clearance in C57BL/6 mouse at 5 mg/kg, iv measured upto 360 mins by HPLC analysis; assay type: ADME, organism-based; details: in vivo
[12] = Apparent volume of distribution in C57BL/6 mouse at 5 mg/kg, iv measured upto 360 mins by HPLC analysis; assay type: ADME, organism-based; details: in vivo, 6 h

Structure (SMILES) | IC50 (Neutrophil [1]) [µM] | inhibition at 10 µM (Neutrophil [2]) [%] | IC50 (Neutrophil [3]) [µM] | inhibition at 10 µM (Neutrophil [4]) [%] | inhibition [5] [%] | inhibition (Neutrophil [6]) | inhibition [7] [%] | inhibition [8] [%] | AUC(0-inf) [9] [ng·h/mL] | half-life [10] [h] | clearance [11] [mL/min] | Vz [12] [mL]
OCc1ccc(-c2nn(Cc3ccccc3)c3ccccc23)o1 | > 10 | 12.9 | > 10 | -2.64 | 60 | – | – | – | – | – | – | –
Fc1ccccc1Cn1nc(-c2ccco2)cc1-c1ccccc1 | 0.00906 | 66.5 | > 10 | 37 | – | Active | 83 | 85 | 962 | 1.32 | 1.97 | 225
COc1ccc(-c2nn(Cc3cccc(F)c3)cc2-c2ccccc2)cc1OC | > 10 | 33.7 | > 10 | 16 | – | – | – | – | – | – | – | –
O=Cc1ccc(-c2nn(C(=O)c3ccccc3F)c3ccccc23)o1 | > 10 | 31.8 | > 10 | 52.2 | – | – | – | – | – | – | – | –
CCCCCCCn1nc(-c2ccccc2)cc1-c1ccccc1 | > 10 | 4.58 | > 10 | 1.6 | – | – | – | – | – | – | – | –
Fc1cccc(Cn2nc(-c3ccco3)cc2-c2ccccc2)c1 | 0.0459 | 94.6 | 3.57 | 76.6 | – | – | – | – | – | – | – | –
O=Cc1ccc(-c2nn(Cc3ccccc3Br)c3ccccc23)o1 | 0.19 | 67.4 | 2.27 | 106 | – | – | – | – | – | – | – | –
Fc1ccccc1Cn1nc(-c2cccs2)cc1-c1ccccc1 | 0.0133 | 72.2 | > 10 | 38.2 | – | Active | – | – | 900 | 1.03 | 1.85 | 165
COc1ccc(-c2nn(Cc3ccccc3)cc2-c2ccccc2)cc1OC | 218 | 68.2 | > 10 | 7.02 | – | – | – | – | – | – | – | –
c1ccc(-c2cc(-c3cccs3)nn2CC2CCCCC2)cc1 | > 10 | 39 | > 10 | 15.2 | – | – | – | – | – | – | – | –
O=Cc1ccc(-c2nn(Cc3ccccc3F)c3ccccc23)o1 | 0.71 | 78.2 | 5.27 | 84.7 | – | – | – | – | – | – | – | –
COc1ccc(-c2cc(-c3ccccc3)n(Cc3cccc(F)c3)n2)cc1OC | > 10 | 44.5 | > 10 | 38.5 | – | – | – | – | – | – | – | –

From ChEMBL document CHEMBL5634155, “Design and synthesis of pyrazole derivatives against neutrophilic inflammation” (Eur J Med Chem, 2023)
